Test results from patent US20260306460A1, “COMPOSITION FOR REMOVING AND INHIBITING SENESCENT CELLS, AND USES THEREOF” (LIFECEUTIX CO., LTD., priority 2023, published 2026).

Legend:
senescent human cells = test: Viability of doxorubicin-induced senescent human cells (CellTiter-Glo), Example 11; format: cell-based; conditions: excessive concentrations (1 or 20 mM)
Protocol: Cells in which senescence was induced by treatment with doxorubicin were treated with the test compound at designated concentrations and measured using the CellTiter-Glo Luminescent Cell Viability Assay (Promega).
(§1) After 3 days, cell viability was measured using CellTiter-Glo Luminescent Cell Viability Assay (Promega) or light microscopy.

naturally aged mice = test: Anti-aging evaluation in naturally aged mice, Example 31, Table 55; format: in vivo, mouse; conditions: for Femur Ctsk mRNA / Kidney Agtr1a mRNA / Liver IL6 mRNA / Liver MMP3 mRNA / Liver p16 mRNA / Open Field Test Time in Center: untreated = 100%; for Heart Sur2a mRNA / Joint Col2a1 mRNA / Skin Col1a1 mRNA / Skin SDF1 mRNA: untreated = 1.0; for Muscle Mass: untreated 0.64 g; for Fat Mass: untreated 0.82 g; for Cataract incidence: untreated 83%;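 for all read-outs here: Vehicle-dosed control mice received solution alone at matching volume, values compare test-compound-treated aged mice against that control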
[1] = tested on: bleomycin-induced pulmonary fibrosis mice; test: Bleomycin-induced pulmonary fibrosis mice, Example 31, Table 56; format: in vivo, mouse; conditions: untreated = 100%
In short: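 After treatment with test compound or vehicle alone, lungs of bleomycin-induced pulmonary fibrosis mice were harvested. Total RNA extracted and gene expression quantified by qRT-PCR.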

[2] = tested on: carbon tetrachloride-induced liver fibrosis mice; test: Carbon tetrachloride-induced liver fibrosis mice, Example 31, Table 57; format: in vivo, mouse; conditions: CCl4-induced liver fibrosis mice, untreated = 100%
In short: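 Mice with induced hepatic fibrosis received either the test compound or, as controls, an equal volume of vehicle solution alone. Once dosing ended, liver tissue was harvested and total RNA was isolated. cDNA was synthesized from this RNA, and quantitative RT-PCR was run on it to measure hepatic mRNA levels of the fibrosis- and senescence-related genes.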

senescent foreskin cells = test: Survival of senescent human cells treated with supernatant (secreted fluid) from death-induced cells, Example 13; format: cell-based; conditions: Table 8; supernatant from dying senescent cells treated at 30, 90 or 270 μM (as Example 11); senescent treated cells
Protocol: as §1
During this additional culture, by checking with an optical microscope, etc., the medium supernatants containing secreted fluid from normally proliferating and senescent cells in which cell death was induced were obtained. The obtained medium supernatant was replaced with the medium of normally proliferating and senescent cells, respectively, and cell survival rate was measured after 3 days.

[3] = tested on: HMGN1 secreted from senescent A549 cells; test: HMGN1 secretion (ELISA) from senescent A549 cancer cells, Example 12; format: cell-based, human; conditions: senescent untreated = 100%; 30 μM; 90 μM for LX-305, 905, 1302, 1601, 1603, 2003, 2702, 2901, 3106; 270 μM for LX-1103, 2005, 2007;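 note: A549 cells made senescent by doxorubicin exposure, with DMSO-treated cells serving as the non-senescent control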
Protocol: Cells were treated with doxorubicin or control (DMSO) and cultured.

| Compound | removal of senescent cells (senescent human cells) | Femur Ctsk mRNA (naturally aged mice) [%] | Heart Sur2a mRNA (naturally aged mice) [fold] | Joint Col2a1 mRNA (naturally aged mice) [fold] | Kidney Agtr1a mRNA (naturally aged mice) [%] | Liver IL6 mRNA (naturally aged mice) [%] | Liver MMP3 mRNA (naturally aged mice) [%] | Liver p16 mRNA (naturally aged mice) [%] | Open Field Test Time in Center (naturally aged mice) [%] | Skin Col1a1 mRNA (naturally aged mice) [Fold] | Skin SDF1 mRNA (naturally aged mice) [fold] | Muscle Mass (naturally aged mice) [g] | Fat Mass (naturally aged mice) [g] | Cataract incidence (naturally aged mice) [%] | Lung p16 mRNA [1] | Col1a1 mRNA [1] | Liver p16 mRNA [2] | Col1a1 mRNA [2] | Survival (senescent foreskin cells) | HMGN1 [3] [%] |
| --- | --- | --- | --- | --- | --- | --- | --- | --- | --- | --- | --- | --- | --- | --- | --- | --- | --- | --- | --- | --- |
| OO [H2O2] | hardly removed |  |  |  |  |  |  |  |  |  |  |  |  |  |  |  |  |  |  |  |
| CCn1c(C#CCNc2ccccc2)cc2cc(CNC)ccc21 [LX-905] |  | 62 | 2.4 | 2.3 | 52 | 38 | 76 | 67 | 241 | 2.0 | 1.5 | 0.69 | 1.08 | 65 | 67 (±5.5) % | 59 (±13.3) % | 76 (±6.0) % | 71 (±7.5) % | 46.5 | 217 |
| NCC(=O)CCC(=O)O [LX-1103, 5-Aminolevulinic acid] |  | 78 | 2.4 | 2.8 | 76 | 70 | 68 | 47 | 183 | 2.3 | 1.7 | 0.68 | 0.89 | 54 | 73 (±3.2) % | 76 (±5.3) % | 77 (±3.5) % | 60 (±6.9) % | 101.8 | 158 |
| O=C(O)c1cc(/N=N/c2ccc(S(=O)(=O)Nc3ccccn3)cc2)ccc1O [LX-1302, Sulfasalazine] |  | 75 | 2.3 | 2.5 | 62 | 48 | 47 | 55 | 201 | 2.4 | 1.8 | 0.70 | 0.92 | 73 | 41 (±1.5) % | 59 (±2.6) % | 52 (±4.4) % | 48 (±3.2) % | 98.5 | 147 |
| Cc1oncc1C(=O)Nc1ccc(C(F)(F)F)cc1 [LX-1603, Leflunomide] |  | 64 | 2.0 | 2.3 | 77 | 61 | 73 | 74 |  | 2.6 | 1.7 | 0.69 | 0.92 | 78 | 78 (±6.1) % | 48 (±2.5) % | 67 (±3.5) % | 54 (±2.9) % | 97.5 | 163 |
| CO[C@]1(C(=O)N[C@@H](C)c2ccc(-n3cc(F)cn3)nc2)CC[C@H](c2nc(C)cc(Nc3cc(C)[nH]n3)n2)CC1 [LX-1902, Pralsetinib] |  | 81 | 1.5 | 1.5 | 71 | 79 | 81 | 72 | 157 | 1.2 | 1.6 | 0.68 | 0.95 | 76 | 72 (±8.8) % | 64 (±8.2) % | 77 (±9.6) % | 68 (±5.7) % | 53.4 | 271 |
| CC/C=C\C/C=C\C/C=C\C/C=C\C/C=C\C/C=C\CCC(=O)O [LX-2702, Docosahexaenoic acid] |  | 50 | 2.3 | 2.8 | 57 | 54 | 73 | 80 | 211 | 1.8 | 2.7 | 0.72 | 1.13 | 66 | 53 (±2.8) % | 43 (±5.9) % | 46 (±3.2) % | 53 (±6.1) % | 68.6 | 237 |
| O=C(NCc1ccncc1)C12CC3CC(C1)CC(c1ccc(Cl)cc1)(C3)C2 [LX-3106, Opaganib] |  | 76 | 1.6 | 2.0 | 83 | 71 | 85 | 76 | 193 | 1.3 | 1.3 | 0.72 | 0.88 | 71 | 67 (±4.3) % | 77 (±3.7) % | 81 (±6.5) % | 71 (±5.4) % | 72.6 | 236 |
| C[C@H](N)C(=O)N1C[C@H](CCCB(O)O)[C@](N)(C(=O)O)C1 [LX-3107, Numidargistat] |  | 81 | 1.7 | 1.1 | 75 | 49 | 68 | 54 | 167 | 1.2 | 1.4 | 0.67 | 0.99 | 65 | 81 (±3.9) % | 68 (±5.1) % | 80 (±3.6) % | 69 (±8.0) % | 62.1 | 267 |
| CC(=O)N[C@@H](Cc1c[nH]c2ccccc12)C(=O)N[C@@H](CCC(=O)C=[N+]=[N-])C(=O)OC(C)C [LX-3201, Sirpiglenastat] |  | 80 | 2.1 | 1.7 | 78 | 71 | 64 | 80 | 171 | 1.6 | 2.0 | 0.71 | 1.06 | 76 | 77 (±5.9) % | 73 (±3.8) % | 71 (±9.4) % | 82 (±8.2) % | 55.2 | 309 |
| Cc1[nH]nc(C(F)(F)F)c1Cc1sc2c(c1C(=O)N1C[C@](C)(O)CO1)c(=O)n(C)c(=O)n2C(C)C [LX-3203] |  | 55 | 1.8 | 1.6 | 68 | 67 | 62 | 66 | 183 | 1.8 | 2.2 | 0.68 | 0.85 | 75 | 69 (±5.0) % | 64 (±4.5) % | 64 (±4.0) % | 66 (±4.5) % | 57.1 | 293 |
| CCc1nc(C(N)=O)c(Nc2ccc(N3CCC(N4CCN(C)CC4)CC3)c(OC)c2)nc1NC1CCOCC1 [LX-3303, Gilteritinib] |  | 76 | 1.9 | 2.1 | 69 | 83 | 73 | 63 | 186 | 1.2 | 1.7 | 0.72 | 1.08 | 61 | 68 (±6.9) % | 78 (±5.1) % | 62 (±4.9) % | 65 (±6.2) % | 53.5 | 239 |
| CC(=O)N[C@@H](CS)C(=O)O [NAC, N-acetyl cysteine] | hardly removed |  |  |  |  |  |  |  |  |  |  |  |  |  |  |  |  |  |  |  |
